Test results taken from PMC11674305, “Inhibition of Neural Crest Cell Migration by Strobilurin Fungicides and Other Mitochondrial Toxicants” (Cells, 2024).
Like-named read-outs stand apart in the source and are kept apart here.

Columns and labels:
[1] = system: neural crest cells (NCC); assay type: cell-based, human
Protocol: The research group initially developed the first version of the test in 2012 [40]. The test has been further improved and characterized. To perform the cMINC assay, NCCs were thawed in N2-S Medium and seeded on the day of migration-1 (DoM-1) on a 96-well polystyrene plate (Corning, Glendale, AZ, USA) around stoppers, to create a cell-free area of 2 mm diameter (Platypus Technologies, Madison, WI, USA). The cells were resuspended in N2-S Medium supplemented with […] of the cytokines EGF and FGF, and then counted and seeded around the stoppers at a density of 95,000 cells/cm^2. After 24 h, the stoppers were removed, and the medium was exchanged. […]
On day 2, cells were stained with 533 nM calcein-AM and 1 μg/mL H-33342 (both from Sigma, Steinheim, Germany) and observed using two different channels on the Cellomics ArrayScan VTI imaging microscope (Thermo Fisher, Pittsburgh, PA, USA) to assess viability and migration. […] Cell viability was assessed by taking four pictures outside of the ROI with 10× magnification objective. Viable cells were defined as H-33342 and calcein-AM double-positive cells and calculated by an automatic algorithm of the ArrayScan VTI 700 Series software as described earlier. […] The average response (relative to solvent control) of the lowest two test concentrations was calculated, and all other data points of the same curve were divided by this average value. […]

[2] = system: neural crest cells (NCC); assay: Long-term transwell migration assay (18 h pre-exposure, 6 h migration); assay type: cell-based, human
Protocol: Magel et al. (2024): Inhibition of neural crest cells migration by strobilurin fungicides […]
Figure S11. Prolonged exposure of NCC in a modified transwell assay setup.
(A) Schematic illustration of the “long-term” transwell migration assay. In the beginning, NCC were plated into the insert of the transwell and treated with potential toxicants. In comparison to the standard transwell set-up, the lower medium compartment was initially not supplemented with FBS. In order to ensure a uniform concentration, picoxystrobin was added to both compartments. Cells were then incubated for 18 h (in the absence of a migration stimulus). Afterwards, 5% FBS was added to the lower compartment, to initiate NCC migration through the membrane pores. After 6 h, the number of cells that reached the downward surface of the membrane was quantified. (B) Result of concentration-dependent picoxystrobin testing in galactose medium in the long-term transwell assay. Cytochalasin D (200 nM) was used as positive control for “inhibited” migration (CytoD). “Unstimulated” migration (no FBS) is also shown. The dotted line at 75% indicates the threshold for inhibited migration. Data are expressed as means ± SEM from 3 independent biological experiments.
(also on this page, place not known: concentration -dependent long -term dott ed -4Ctrl Transwell migration [% of control ± SEM] CytoDBMC25 Picoxystrobin) […]

CO/C=C(/C(=O)OC)c1ccccc1COc1cccc(C(F)(F)F)n1 [Picoxystrobin, picoxystrobin]
BMC10 (V) [1]: 2.8 µM | concentration range at which migration was inhibited ([1]; galactose medium): ~100 nM | concentration range at which migration was inhibited ([2]; 18 h pre-treatment + 6 h migration): ~600 nM | BMC25 ([2]; galactose medium, 18 h pre-exposure + 6 h migration): 0.6 µM
